Experimental data from US9505834B2, “Methods for controlling the galactosylation profile of recombinantly-expressed proteins” (AbbVie Inc., priority 2011, dated 2016).

Columns and labels:
[1] = test system: adalimumab-producing CHO cell line #3; experiment: Example 5 culture growth & productivity; type: cell-based, Chinese Hamster; conditions: 30 mM galactose alone
Procedure: (§1) For all studies with CHO cell lines described throughout this invention, samples were collected daily and measured for cell density and viability using a Cedex cell counter. Retention samples for titer analysis via Poros A method were collected by centrifugation at 12,000 RPM for 5 min when the culture viability began declining. The cultures were harvested by collecting 125 mL aliquots and centrifuging at 3,000 RPM for 30 min when culture viability was near or below 50%. All supernatants were stored at −80° C. until analysis.
Growth and production media for the adalimumab-producing CHO cell line #3 were prepared using the proprietary Life Technologies Gibco chemically defined media, GIA-1.
Upon thaw, cells were expanded in Corning vented non-baffled shake flasks maintained on orbital shakers at 140 RPM, and in 10 L cell bags (2 L working volume) maintained at 25 RPM, 7° angle, and 0.25 SLPM airflow in a dry incubator at 36° C. and 5% CO2. Production cultures were initiated in 3 L bioreactors (1.4 L initial working volume) at 36° C., 30% dissolved oxygen, 200 RPM, and pH 6.9±0.2. A fixed split ratio of cells to media of 1:6.7 was utilized to initiate the production stage cultures. A temperature shift was performed when the culture VCD reached a value higher than 5×10^6 cells/mL. […]

[2] = test system: adalimumab-producing CHO cell line; conditions: 10 μM manganese chloride; within historical variation
Procedure: as §1
All media were filtered through Corning 0.5 L or 1 L filter systems (0.22 μm PES) and stored at 4° C. until use.
Production cultures were initiated in duplicate 500 mL Corning vented non-baffled shake flasks (200 mL working volume) at an initial VCD of approximately 0.5×10^6 cells/mL. Cultures were maintained on orbital shakers at 110 RPM in a dry incubator at 35° C. and 5% CO2. A glucose solution (1.25% (v/v) of 40% solution) was fed when the media glucose concentration fell below 3 g/L.

Row | Compound | growth profile [1] | maximum VCD compared to all other cultures [2]
1 | O=C[C@H](O)[C@@H](O)[C@@H](O)[C@H](O)CO [galactose, D(+)Galactose] | grew slower and reached a lower peak VCD | 
2 | Manganese (II) Chloride [manganese chloride] |  | slightly higher maximum VCD
